Measured values taken from US20230218675A1, “EXOSOMES ISOLATED FROM DERMAL PAPILLA PROGENITOR CELLS, AND USE THEREOF” (CELLPARK GLOBAL, priority 2020, published 2023).

System: human hair follicles
Assay: Human hair follicle organ culture, hair follicle length growth evaluation 1
Type: cell-based
Conditions: for 6 days; exosomes 1.0×10^9 particles, minoxidil 1 μM
Procedure: In order to evaluate effects of the exosomes of the present invention on human hair follicle growth, a human hair follicle organ culture test (ex vivo hair follicle organ culture) was conducted. More specifically, scalp tissues were isolated into the unit of hair follicles, and the remaining hair follicles were used after cutting the part below the sebaceous gland of the isolated hair follicles. The prepared hair follicles were treated with Examples 1 and 2, and minoxidil as a positive control, respectively, and lengths of the hair growing on the 3rd and 6th days were measured, followed by comparing the measured results to the negative control in order to evaluate a length growth and a growth cycle of human hair follicles. […] The lengths of the hair follicles grown on the 3rd and 6th days of the culture, respectively, were measured using a microscope ruler.

## Nc1cc(N2CCCCC2)nc(N)[n+]1[O-] [minoxidil]
  growth of hair (hair follicle length): about 1.5 mm
